Positions of bridges follow the written chain, without caps; N, C: chain ends. Residues, ends and D or L forms follow the SMILES beside them.
Legend:
[1] = biological target: T1, intestinal GC-C receptor (Homo sapiens, UniProt P25092); experiment: Intestinal GC-C receptor activity assay (cyclic GMP by EIA in T84 cells); format: cell-based; settings: chemically synthesized peptides, FIG. 2
T1 construct: host or cells: T84 human colon carcinoma cells
Experimental: The ability of SEQ ID NO:5, SEQ ID NO:4, and SEQ ID NO:3 to activate the intestinal GC-C receptor was assessed in an assay employing the T84 human colon carcinoma cell line (American Type Culture Collection (Bethesda, Md.)). For the assays cells were grown to confluency in 24-well culture plates with a 1:1 mixture of Ham's F12 medium and Dulbecco's modified Eagle's medium (DMEM), supplemented with 5% fetal calf serum and were used at between passages 54 and 60.
Briefly, monolayers of T84 cells in 24-well plates were washed twice with 1 ml/well DMEM, then incubated at 37° C. for 10 min with 0.45 ml DMEM containing 1 mM isobutylmethylxanthine (IBMX), a cyclic nucleotide phosphodiesterase inhibitor. Test peptides (50 μl) were then added and incubated for 30 minutes at 37° C. The media was aspirated and the reaction was then terminated by the addition of ice cold 0.5 ml of 0.1N HCl. The samples were held on ice for 20 minutes and then evaporated to dryness using a heat gun or vacuum centrifugation. The dried samples were resuspended in 0.5 ml of phosphate buffer provided in the Cayman Chemical Cyclic GMP EIA kit (Cayman Chemical, Ann Arbor, Mich.). Cyclic GMP was measured by EIA according to procedures outlined in the Cayman Chemical Cyclic GMP EIA kit.

[2] = Bioavailability study in mice, serum detection by LCMS; format: in vivo; settings: FIG. 10b
Experimental: A similar bioavailability study was performed in which LCMS rather than ELISA was used to detect SEQ ID NO:3. Initially, serum samples were extracted from the whole blood of exposed and control mice, then injected directly ([…]) onto an in-line solid phase extraction (SPE) column (Waters Oasis HLB […] column, 2.0×15 mm direct connect) without further processing. The sample on the SPE column was washed with a 5% methanol, 95% dH2O solution (2.1 mL/min, 1.0 minute), then loaded onto an analytical column using a valve switch that places the SPE column in an inverted flow path onto the analytical column (Waters Xterra MS C8 5 mm IS column, 2.1×20 mm). The sample was eluted from the analytical column with a reverse phase gradient (Mobile Phase A: 10 mM ammonium hydroxide in dH2O, Mobile Phase B: 10 mM ammonium hydroxide in 80% acetonitrile and 20% methanol; 20% B for the first 3 minutes then ramping to 95% B over 4 min. and holding for 2 min., all at a flow rate of 0.4 mL/min.). At 9.1 minutes, the gradient returns to the initial conditions of 20% B for 1 min. SEQ ID NO:3 eluted from the analytical column at 1.45 minutes, and was detected by triple-quadrapole mass spectrometry (MRM, 764 (+2 charge state)>182 (+1 charge state) Da; cone voltage=30V; collision=20 eV; parent resolution=2 Da at base peak; daughter resolution=2 Da at base peak). […]

[3] = tested on: gastrointestinal transit; experiment: Murine gastrointestinal transit (GIT) assay, charcoal front; format: in vivo, mice
Experimental: In order to determine whether the peptides increase the rate of gastrointestinal transit, the peptides and controls were tested using a murine gastrointestinal transit (GIT) assay (Moon et al. Infection and Immunity 25:127, 1979). In this assay, charcoal, which can be readily visualized in the gastrointestinal tract is administered to mice after the administration of a test compound. The distance traveled by the charcoal is measured and expressed as a percentage of the total length of the […].
Mice were fasted with free access to water for 12 to 16 hours before the treatment with peptide or control buffer. The peptides were orally administered at 1 μg/kg-1 mg/kg of peptide in buffer (20 mM Tris pH 7.5) 7 minutes before being given an oral dose of 5% Activated Carbon (Aldrich 242276-250G). Control mice were administered buffer only before being given a dose of Activated Carbon. After 15 minutes, the mice were sacrificed and their intestines from the stomach to the cecum were dissected. The total length of the intestine as well as the distance traveled from the stomach to the charcoal front was measured for each animal and the results are expressed as the percent of the total length of the intestine traveled by the charcoal front. All results are reported as the average of 10 mice±standard deviation. A comparison of the distance traveled by the charcoal between the mice treated with peptide versus the mice treated with vehicle alone was performed using a Student's t test and a statistically significant difference was considered for P<0.05. P-values are calculated using a two-sided T-Test assuming unequal variances.
The identical experiment was performed to determine if SEQ ID NO:3 is effective in a chronic dosing treatment regimen. Briefly, 8 week old CD1 female mice are dosed orally once a day for 5 days with either SEQ ID NO:3 (0.06 mg/kg or 0.25 mg/kg in 20 mM Tris pH 7.5) or vehicle alone (20 mM Tris pH 7.5). On the 5th day, a GIT assay is performed identical to that above except 200 μl of a 10% charcoal solution is administered. […] The results are shown side by side with acute dosing (1 day).

T1 sequence (P25092 24-1073): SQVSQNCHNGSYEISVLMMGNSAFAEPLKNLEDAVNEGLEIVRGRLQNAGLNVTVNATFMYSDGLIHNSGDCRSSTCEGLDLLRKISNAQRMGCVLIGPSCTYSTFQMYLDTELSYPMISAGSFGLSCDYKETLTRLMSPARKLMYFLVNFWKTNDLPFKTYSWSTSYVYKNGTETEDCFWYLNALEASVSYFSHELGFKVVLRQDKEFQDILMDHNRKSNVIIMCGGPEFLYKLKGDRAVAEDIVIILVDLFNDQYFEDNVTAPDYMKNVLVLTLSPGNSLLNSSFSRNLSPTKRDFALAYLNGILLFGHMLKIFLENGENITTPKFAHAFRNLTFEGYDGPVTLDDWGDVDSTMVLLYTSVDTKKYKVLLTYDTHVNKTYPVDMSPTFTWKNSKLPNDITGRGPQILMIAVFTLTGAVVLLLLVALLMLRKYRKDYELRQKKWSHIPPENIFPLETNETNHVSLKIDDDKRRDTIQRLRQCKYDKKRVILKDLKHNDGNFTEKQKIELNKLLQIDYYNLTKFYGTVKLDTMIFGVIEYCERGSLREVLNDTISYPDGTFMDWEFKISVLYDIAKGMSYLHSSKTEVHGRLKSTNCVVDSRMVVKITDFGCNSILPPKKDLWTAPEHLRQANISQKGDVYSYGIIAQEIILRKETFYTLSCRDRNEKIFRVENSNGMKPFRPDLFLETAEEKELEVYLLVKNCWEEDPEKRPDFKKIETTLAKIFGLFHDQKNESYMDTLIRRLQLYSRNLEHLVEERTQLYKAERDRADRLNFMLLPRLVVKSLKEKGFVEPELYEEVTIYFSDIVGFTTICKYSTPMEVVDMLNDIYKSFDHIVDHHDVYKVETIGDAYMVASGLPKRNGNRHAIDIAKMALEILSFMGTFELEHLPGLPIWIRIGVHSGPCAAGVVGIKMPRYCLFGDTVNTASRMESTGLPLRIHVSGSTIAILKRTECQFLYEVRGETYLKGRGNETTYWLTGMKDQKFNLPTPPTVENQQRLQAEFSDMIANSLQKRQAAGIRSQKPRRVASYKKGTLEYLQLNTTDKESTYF

For C[C@@H]1NC(=O)[C@@H]2CCCN2C(=O)[C@H](CC(N)=O)NC(=O)[C@@H]2CSSC[C@H](N)C(=O)N[C@H]3CSSC[C@H](NC1=O)C(=O)N[C@@H]([C@@H](C)O)C(=O)NCC(=O)N[C@H](C(=O)N[C@@H](Cc1ccc(O)cc1)C(=O)O)CSSC[C@H](NC(=O)[C@H](Cc1ccc(O)cc1)NC(=O)[C@H](CCC(=O)O)NC3=O)C(=O)N2 [SEQ ID NO:3, Cys Cys Glu Tyr Cys Cys Asn Pro Ala Cys Thr Gly Cys Tyr] (H-CCEYCCNPACTGCY-OH; disulfide 1-6, 2-10, 5-13; N-terminus and C-terminus assumed), the “activity in GC-C receptor activity assay” value [1] was “activity comparable to SEQ ID NO:4”, the bioavailability ([2]; CD1, mouse, serum, oral versus IV) was under 0.11% and the systemic absorption ([2]; oral) was “minimally systemically absorbed”. For the same compound, the gastrointestinal transit rate ([3]; acute, oral, mice, SEQ ID NO:4 and Zelnorm 0.1 mg/kg, FIG. 3a/3b) was “increase gastrointestinal transit rate”, the “intestinal transit rate versus Tris buffer or equivalent dose of Zelnorm” value ([3]; acute, oral, mice, chemically synthesized peptides, FIG. 4b) was “increase intestinal transit rates more than either Tris buffer alone or an equivalent dose of Zelnorm®” and the “effect in mouse gastrointestinal motility assay upon chronic dosing” value ([3]; oral once a day for 5 days, CD1 female mice, FIG. 4c) was “effective”.

From patent US7772188B2, “Methods and compositions for the treatment of gastrointestinal disorders” (priority 2003, dated 2010)
